This is an account of results in US9518271B2, “Lentiviral-based vector and its use in directed evolution of genomic regions, genes and polynucleotides” (CENTRE NATIONAL DE LA RECHERCHE SCIENTIFIQUE, priority 2009, dated 2016).

Experiment [1] relates to Jurkat SLP-76−/−plL2-luc cell clone. The experiment in a line: Luciferase induction in Jurkat SLP-76-/- pIL2-luc cell clone. It is filed as cell-based. As to conditions: IL2 promoter-driven luciferase; PMA and Calcimycine applied together. The text has this:
(§1) Concerning the screening based on the two luciferase-based readouts (either the one based on transcription driven by the NFAT or by IL2), the inventors have constructed two cell lines which as such are also part of the present invention: • the Jurkat SLP-76−/−plL2-luc cell clone, deposited at the CNCM (Paris, France) under accession number I-4236 on Oct. 30, 2009, in the name of Institut Pasteur, 25-28 rue du Docteur Roux, 75724 Paris Cedex 15, and resulting from the introduction in Jurkat J14 cells (SLP-76−/−) of the firefly luciferase gene under the control of two copies of the IL2 promoter; and • the Jurkat SLP-76−/−NFAT-luc cell clone, deposited at the CNCM under accession number I-4237 on Oct. 30, 2009, in the name of Institut Pasteur, 25-28 rue du Docteur Roux, 75724 Paris Cedex 15, and resulting from the introduction in Jurkat J14 cells (SLP-76−/−) of the firefly luciferase gene preceded by three copies of the NFAT binding site.

In experiment [2] the test system is Jurkat SLP-76−/−NFAT-luc cell clone. The experiment in a line: Luciferase induction in Jurkat SLP-76-/- NFAT-luc cell clone. It is filed as cell-based. As to conditions: NFAT binding site-driven luciferase; PMA and Calcimycine applied together.
Excerpt: as §1

Experiment [3] concerns Messa 10K cells. As to conditions: Messa 10K cells lacking functional dCK; read-out: Gemcitabine 1050; cited from earlier work.
For experiment [4], the system named is HEK 293T cells. Nature of the experiment: Cell death (MTT assay) of HEK 293T clones carrying dCK variants exposed to AraC. It is filed as cell-based, human. As to conditions: increasing concentrations of AraC, 72 h, FIG. 8. From the text: FIG. 8 discloses the cell survival with regard to increasing concentrations of AraC (μM) in presence of the wild type dCK gene (white triangles and solid thick curve) or variants containing point mutations or deletion in the dCK gene (other curves). Each plot represents the average of three independent experiments.
(§2) 80 individual cellular clones at the F17 generation, obtained after transduction of 293T cells at a low multiplicity of infection (and therefore carrying a single variant of the target polynucleotide) have been isolated. The 80 clones have been tested for the kinetic of cell death induced after their exposal to different concentrations of the two anti-cancer drugs, AraC and Gemcitabine, which are cytidine analogues (the natural substrate of dCK) as follows.
Individual clones have been isolated after transduction of HEK 293T cells at low multiplicity of transduction (m.o.i.) and seeding of the transduced cells at limiting dilutions in 96-well plates. […] Seventy-two hours after exposure, cell death has been evaluated for each independent clone and for each drug treatment condition using the MTT assay (Promega) that is a colorimetric test used to quantify cell viability and proliferation. A relative rate of cell death has been calculated for each clone, with respect to the values observed in the plate where no drug was included. […]
On the technique in general: Tetrazolium dyes change colour on reduction, which living cells bring about.

Experiment [5] deals with HEK 293T cells. The experiment in a line: Cell death (MTT assay) of HEK 293T clones carrying dCK variants exposed to Gemcitabine. Type of experiment: cell-based, human. Conditions: 10 nM Gemcitabine, average of 4 independent experiments.
Excerpt: as §2
Individual clones have been isolated after transduction of HEK 293T cells at low multiplicity of transduction (m.o.i.) and seeding of the transduced cells at limiting dilutions in 96-well plates. Individual cell clones growing in the presence of puromycin have then been expanded and seeded in parallel in several replicated 96-well plates. All these plates, with the exception of one to use as control, have been exposed to the anticancer drug at different concentrations, while the control plate has been maintained in the absence of drug. Seventy-two hours after exposure, cell death has been evaluated for each independent clone and for each drug treatment condition using the MTT assay (Promega) that is a colorimetric test used to quantify cell viability and proliferation. A relative rate of cell death has been calculated for each clone, with respect to the values observed in the plate where no drug was included. […]

Experiment [6] deals with Messa 10K cells. The experiment in a line: Sensitivity to Gemcitabine of Messa 10K cells transduced with dCK variants. Type of experiment: cell-based, human. The method, then: FIG. 10 discloses (A) the cell survival with regard to increasing concentrations of Gemcitabine (nM) in untransduced Messa 10K cells (grey solid line), in presence of the wild type dCK gene (large dashed lines) or in presence of dCK G12 variants gene (black solid lines); (B) the survival of Messa 10K cells in presence of 75 nM Gemcitabine in untransduced Messa 10K cells (Messa10K), in Messa 10K cells transduced with a viral vector carrying a wild type dCK gene (M-dCK), in Messa 10K cells transduced with a viral vector carrying the E8 variant dCK gene with mutations G>A 739 et C>A 745 (M-E8) or in Messa 10K cells transduced with a viral vector carrying the G12 variant dCK gene (M-G12), and (C) Western Blot to detect dCK expression on cell lysates, using a polyclonal rabbit antibody; M: untransduced Messa10K cells; M-dCK: Messa10K transduced with a vector carrying the wt dCK gene (4 independent populations); M-G12: Messa10K transduced with a vector carrying the G12 mutant (4 independent populations).
FIG. 11 discloses the cell survival with regard to increasing concentrations of Gemcitabine (nM) in untransduced Messa10K cells (small dashed line), in Messa10K cells transduced with a vector carrying the wt dCK gene (large dashed line; n=5), in Messa10K cells transduced with a vector carrying the sequence of the dCK G12 variant re-inserted in a wild-type backbone (light grey line; n=5), in Messa10K cells transduced with a vector rescued from the 293T-G12-F16 cell line (dark grey line; n=5) and in Messa10K cells transduced with a vector rescued from the 293T-G12-F17 cell line (solid black line; n=5). […]
For these reasons, a strategy for the screening on Messa 10K cells (illustrated in FIG. 9) was set up, aiming at averaging the epigenetic effects possibly influencing the final phenotype by analysing a population of target cells containing the same dCK variant inserted in different sites of the genome. […] The totality of the clones of the same variant were cultivated and analysed for the sensitivity to Gemcitabine in the assay previously described. […]

As to `CNc1ccc2oc(C[C@H]3O[C@@]4(CC[C@H]3C)O[C@H]([C@H](C)C(=O)c3ccc[nH]3)[C@H](C)C[C@H]4C)nc2c1C(=O)O` [Calcimycine], the induction of luciferase entry in experiment [1] and in experiment [2] was “strong induction” each time.
As to `Nc1ccn([C@@H]2O[C@H](CO)[C@@H](O)C2(F)F)c(=O)n1` [Gemcitabine], in the experiment with Messa 10K cells [3], the IC50 is 11 µM.
Take `CCCCCCCCCCCCCC(=O)O[C@@H]1[C@@H](C)[C@@]2(O)[C@@H](C=C(CO)C[C@]3(O)C(=O)C(C)=C[C@@H]23)[C@@H]2C(C)(C)[C@]12OC(C)=O` [Phorbol Myristate Acetate]: the induction of luciferase result in experiment [1] and in experiment [2] was “strong induction” throughout.
For the molecule “G7: dCK variant with a G to A transition at position 521, leading to the G174E variation at the amino acid level [Clone G7]”, the “cell death induced by AraC compared with wt dCK” value in the experiment with HEK 293T cells [4] was “clear tendency to induce cell death”.
Turning to “G12: dCK variant with a G to A transition at position 511 (E171K at the amino acid level) [Clone G12]”, in the experiment with HEK 293T cells [5], the “ratio of cell survival in G12 cells/dCK cells” value was found to be 0.50±0.11. The cell death ratio in the experiment with Messa 10K cells [6] (75 nM Gemcitabine, transduced Messa 10K cells, FIG. 10B) stood at 90%. Further, the “sensitivity to Gemcitabine conferred after re-insertion in a wild type lentiviral vector” value in the experiment on Messa 10K cells [6] (G12 subcloned from cell line F16, Messa 10K cells, FIG. 11) is given as “maintains the ability to confer increased sensitivity to Gemcitabine”. For the same molecule, in the experiment on Messa 10K cells [6] (transduced Messa 10K cells, four rounds of screening, FIG. 10A/10B), the “cell death by Gemcitabine compared with wild type dCK” value is recorded as “cell death ratio higher than the one induced from a wild type dCK”.
